Where two headings read alike, the source gives them in different places.
What was measured:
[1] = system: WI38 human lung fibroblast cell line (BR−); test: In vitro cytotoxicity, standard MTT assay, WI38 cells; assay type: cell-based
Method: (§1) Cell Culture. All cell lines were obtained from ATCC unless otherwise noted. Cells were cultured in RPMI-1640 cell culture medium (Gibco) or DMEM (Gibco), both supplemented with 5% (v/v) heat-inactivated fetal bovine serum (FBS), 5% (v/v) NuSerum, and 1% (v/v) penicillin and streptomycin (PenStrep) at 37° C. in a humidified atmosphere with 5% CO2. MX-1 and ID8 (obtained from University of Kansas Medical Center) cells were cultured as monolayers on 100 mm tissue culture dishes in supplemented RPMI-1640. L1210 and L1210FR (a gift from Dr. Gregory Russell-Jones, Access Pharmaceuticals Pty Ltd., Australia) were grown as a suspension in supplemented RPMI-1640, and WI-38 as a monolayer in supplemented DMEM. Cells were harvested, collected by centrifugation at 850 rpm for 5 min, and resuspended in fresh culture medium. Cell cultures were routinely divided by treatment with trypsin (TrypLE, Gibco) as needed every 2-4 days and collected by centrifugation at 850 rpm for 5 min, and resuspended in fresh cell culture medium, containing varying cell densities for subsequent biological experiments and analysis.
(§2) In Vitro Cytotoxicity Assays. […] Cells were harvested, collected, and resuspended in 100 μL cell culture medium at concentrations ranging from 0.5-1.5×10^4 cells per well in a 96-well plate. For adhesive cell types, cells were allowed to descend to the bottom of the wells overnight, and fresh medium was added to each well upon removal of the old medium.
(§3) For the MTT assay (Table 1 and the Assay 1 in Table 2) of paclitaxel, taxoid 3 and conjugates 1 and 15, cells were resuspended in 200 μL medium with 8,000 to 10,000 cells per well of a 96-well plate and incubated at 37° C. for 24 h before drug treatment. In DMSO stock solutions, each drug or conjugate was diluted to a series of concentrations in cell culture medium to prepare test solutions. After removing the old medium, these test solutions were added to the wells in the 96-well plate to give the final concentrations ranging from 0.5 to 5,000 nM (100 μL), and the cells were subsequently cultured at 37° C. for 48 h (Table 1) or 72 h (Table 2, Assay 1). For the leukemia cell lines, L1210 and L1210FR, cells were harvested, collected, and resuspended in the test solutions ranging from 0.5 to 5,000 nM (100 μL) at 0.5 to 0.8 ×10^4 cells per well in a 96-well plate and subsequently incubated at 37° C. for 48 h (Table 1) or 72 h (Table 2, Assay 1).
(§4) In the Assay 2 (Table 2), cells were incubated with 1 or 15 at 37° C. for 24 h, and the drug medium was removed. Then, treated cells were thoroughly washed with PBS, and GSH-OEt (6 equiv. to conjugate) in cell culture medium (200 μL) was added to the wells. These cells were incubated at 37° C. for an additional 48 h, i.e., the total incubation time was 72 h.
(§5) In the Assay 3 (Table 2), cells were incubated with 1 or 15 at 37° C. for 24 h, and GSH-OEt (6 equivalents) in cell culture medium (100 μL) was directly added to the wells. These cells were incubated at 37° C. for an additional 48 h, i.e. the total incubation time was also 72 h.
(§6) For all experiments, after removing the test medium, fresh solution of MTT in PBS (40 μL of 0.5 mg MTT/mL) was added to the wells, and the cells were incubated at 37° C. for 3 h. The MTT solution was then removed, and the resulting insoluble violet formazan crystals were dissolved in 0.1 N HCl in isopropanol with 10% Triton X-100 (40 μL) to give a violet solution. The spectrophotometric absorbance measurement of each well in the 96-well plate was run at 570 nm using a Labsystems Multiskan Ascent microplate reader. The IC50 values and their standard errors were calculated from the viability-concentration curve using Four Parameter Logistic Model of Sigmaplot. The concentration of DMSO per well was ≤1% in all cases. Each experiment was run in triplicate.

[2] = system: MX-1 human breast carcinoma cell line (BR+); test: In vitro cytotoxicity, standard MTT assay, MX-1 cells; assay type: cell-based
Method: as §1, §2, §3, §4, §5, §6

[3] = system: L1210FR murine lymphocytic leukemia cell line (BR+); test: In vitro cytotoxicity, standard MTT assay, L1210FR cells; assay type: cell-based
Method: as §1, §2, §3, §4, §5, §6

[4] = system: ID8 murine ovarian carcinoma cell line (BR+); test: In vitro cytotoxicity, standard MTT assay, ID8 cells; assay type: cell-based
Method: as §1, §2
as §3, with “After removing the old medium, these test solutions were added to the wells in the 96-well plate to give the final concentrations ranging from 0.5 to 5,000 nM (100 μL), and the cells were subsequently cultured at 37° C. for 48 h (Table 1) or 72 h (Table 2, Assay 1).” left out
as §6

[5] = system: L1210 murine lymphocytic leukemia cell line (BR−); test: In vitro cytotoxicity, standard MTT assay, L1210 cells; assay type: cell-based
Method: as §1, §2, §3, §6

MCF-7 (breast) = test: In vitro cytotoxicity, standard MTT assay, MCF-7 cells; assay type: cell-based; details: 72 h drug incubation
Method: as §2
For the MTT assay (Table 1 and the Assay 1 in Table 2) of paclitaxel, taxoid 3 and conjugates 1 and 15, cells were resuspended in 200 μL medium with 8,000 to 10,000 cells per well of a 96-well plate and incubated at 37° C. for 24 h before drug treatment. In DMSO stock solutions, each drug or conjugate was diluted to a series of concentrations in cell culture medium to prepare test solutions. […]
For all experiments, after removing the test medium, fresh solution of MTT in PBS (40 μL of 0.5 mg MTT/mL) was added to the wells, and the cells were incubated at 37° C. for 3 h. […] The spectrophotometric absorbance measurement of each well in the 96-well plate was run at 570 nm using a Labsystems Multiskan Ascent microplate reader. The IC50 values and their standard errors were calculated from the viability-concentration curve using Four Parameter Logistic Model of Sigmaplot. […]

[6] = system: L1210FR murine lymphocytic leukemia cell line (BR+); test: In vitro cytotoxicity, standard MTT assay, L1210FR cells; assay type: cell-based; details: 24 hour incubation; read-out: IC50, L1210 FR (leuk.)
[7] = system: WI38 human lung fibroblast cell line (BR−); test: In vitro cytotoxicity, standard MTT assay, WI38 cells; assay type: cell-based; details: 24 hour incubation; read-out: IC50, WI38 (normal lung)
[8] = as above; assay type: cell-based, human; details: human
Method: as §1, §2, §3, §4, §5, §6

[9] = system: BR+ cancer cell lines (L1210FR, MX-1, ID8); test: MTT cytotoxicity summarised over BR+ cancer cell lines; assay type: cell-based; details: for IC50: additional 48 h, range over conjugates 1 and 15
Method: as §2, §3, §4, §5, §6
Thus, the Assay 1 results provide the potency of conjugates in the same manner as that for the first assay summarized in Table 1, but for longer incubation time (48 h vs. 72 h). […] Accordingly, this assay may mimic the corresponding in vivo assay conditions, wherein non-internalized conjugates would be removed from the tumor, redistributed and eventually excreted. […] Thus, in principle, the results (IC50 values) in this assay should be very close to those for the control using taxoid 3 (entry 2).

[10] = 72 h incubation, no GSH-OEt, read-out: Cytotoxicity IC50, WI38, Assay 1

CC(=O)O[C@H]1C(=O)[C@@]2(C)[C@H]([C@H](OC(=O)c3ccccc3)[C@]3(O)C[C@H](OC(=O)[C@H](O)[C@@H](NC(=O)c4ccccc4)c4ccccc4)C(C)=C1C3(C)C)[C@]1(OC(C)=O)CO[C@@H]1C[C@@H]2O [paclitaxel, reference compound]
IC50 [1, 10]: 0.0557 ± 0.00954 µM
IC50 ([1]; incubation at 37° C. for 48 h, read-out: Cytotoxicity IC50, WI38): 0.0614 ± 0.0127 µM
IC50 ([2]; Homo sapiens, Breast carcinoma cell, 72 h incubation, no GSH-OEt, read-out: Cytotoxicity IC50, MX-1, Assay 1): 0.00407 ± 0.0008 µM
IC50 ([2]; Homo sapiens, Breast carcinoma cell, incubation at 37° C. for 48 h, read-out: Cytotoxicity IC50, MX-1): 0.00723 ± 0.00068 µM
IC50 ([3]; Mus musculus, 72 h incubation, no GSH-OEt, read-out: Cytotoxicity IC50, L1210FR, Assay 1): 0.0356 ± 0.0082 µM
IC50 ([3]; Mus musculus, incubation at 37° C. for 48 h, read-out: Cytotoxicity IC50, L1210FR): 0.0387 ± 0.0177 µM
IC50 ([4]; Mus musculus, Ovarian carcinoma cell, incubation at 37° C. for 48 h, read-out: Cytotoxicity IC50, ID8): 0.0144 ± 0.00181 µM
IC50 ([5]; Mus musculus, L1210, incubation at 37° C. for 48 h, read-out: Cytotoxicity IC50, L1210): 0.0771 ± 0.0128 µM

CC[C@@]1(OC(=O)Cc2ccccc2SSC(C)CCC(=O)NCCOCCOCCOCCn2cc(CNc3nc(NCCNC(=O)CCC(C)SSc4ccccc4CC(=O)O[C@@H](C(=O)O[C@H]4C[C@@]5(O)[C@@H](OC(=O)c6ccccc6)[C@@H]6[C@]7(OC(C)=O)CO[C@@H]7C[C@H](O)[C@@]6(C)C(=O)[C@H](OC(=O)C6CC6)C(=C4C)C5(C)C)[C@H](C=C(C)C)NC(=O)OC(C)(C)C)nc(NCCOCCOCCOCCNC(=O)CCCC[C@@H]4SC[C@@H]5NC(=O)N[C@@H]54)n3)nn2)C(=O)OCc2c1cc1n(c2=O)Cc2cc3ccccc3nc2-1 (some centres unmarked) [Compound 116]
IC50 ([1]; 72 h drug incubation, read-out: IC50, WI38 (normal lung)): 0.742 µM
IC50 (MCF-7 (breast)): 0.019 µM
IC50 ([2]; 24 hour incubation, read-out: IC50, MX-1 (breast)): 0.0098 µM
IC50 ([2]; 72 h drug incubation, read-out: IC50, MX-1 (breast)): 0.0517 µM
IC50 [6]: 0.0074 µM
IC50 ([3]; 72 h drug incubation, read-out: IC50, L1210FR (leuk.)): 0.0391 µM
IC50 ([4]; 24 hour incubation, read-out: IC50, ID8 (ovarian)): 0.00566 µM
IC50 ([4]; 72 h drug incubation, read-out: IC50, ID8 (ovarian)): 0.0234 µM
IC50 ([5]; 72 h drug incubation, read-out: IC50, L1210 (leuk.)): 0.69 µM
IC50 [7]: 0.705 µM

CC(=O)O[C@@]12CO[C@@H]1C[C@H](O)[C@@]1(C)C(=O)[C@H](OC(=O)C3CC3)C3=C(C)[C@@H](OC(=O)[C@H](OC(=O)Cc4ccccc4SSC(C)CCC(=O)NNC(=O)CCCC[C@@H]4SC[C@@H]5NC(=O)N[C@@H]54)[C@H](C=C(C)C)NC(=O)OC(C)(C)C)C[C@@](O)([C@@H](OC(=O)c4ccccc4)[C@H]21)C3(C)C (some centres unmarked) [Conjugate 15, Biotin-(SS-Linker)-SB-T-1214]
IC50 at 72 h ([8]; 24 h incubation, PBS wash, then GSH-OEt (6 equiv.) and additional 48 h, read-out: Cytotoxicity IC50, WI38, Assay 2): 0.59 ± 0.164 µM
IC50 at 72 h ([8]; 24 h incubation, then GSH-OEt (6 equiv.) added without washing, additional 48 h, read-out: Cytotoxicity IC50, WI38, Assay 3): 0.011 ± 0.0031 µM
IC50 at 72 h [8, 10]: 0.645 ± 0.097 µM
IC50 at 48 h ([8]; incubation at 37° C. for 48 h): 0.67 ± 0.089 µM
IC50 ([9]; 24 h, PBS wash, GSH-OEt, read-out: IC50 range against BR+ cancer cells (MX-1, L1210FR), Assay 2): 0.00385 to 0.0066 µM
Cancer cell selectivity (BR-specificity), BR+ cancer cells vs BR− WI38 cells ([9]; Assay 2): two-orders of magnitude difference
IC50 ([9]; GSH-OEt added after 24 h without PBS washing, read-out: IC50 range against MX-1 and L1210FR, third assay (Assay 3)): 0.0024 to 0.00292 µM
IC50 ([2]; Homo sapiens, Breast carcinoma cell, 48 h, read-out: Cytotoxicity IC50, MX-1): 0.0154 ± 0.0042 µM
IC50 ([2]; Homo sapiens, Breast carcinoma cell, 72 h, read-out: Cytotoxicity IC50, MX-1, Assay 1): 0.00466 ± 0.00087 µM
IC50 ([2]; Homo sapiens, Breast carcinoma cell, read-out: Cytotoxicity IC50, MX-1, Assay 2): 0.00385 ± 0.00014 µM
IC50 ([2]; Homo sapiens, Breast carcinoma cell, read-out: Cytotoxicity IC50, MX-1, Assay 3): 0.0024 ± 0.00018 µM
IC50 ([3]; Mus musculus, 48 h, read-out: Cytotoxicity IC50, L1210FR): 0.0134 ± 0.0068 µM
IC50 ([3]; Mus musculus, 72 h, read-out: Cytotoxicity IC50, L1210FR, Assay 1): 0.0123 ± 0.0028 µM
IC50 ([3]; Mus musculus, read-out: Cytotoxicity IC50, L1210FR, Assay 2): 0.00515 ± 0.00285 µM
IC50 ([3]; Mus musculus, read-out: Cytotoxicity IC50, L1210FR, Assay 3): 0.00292 ± 0.00234 µM
IC50 ([4]; Mus musculus, Ovarian carcinoma cell, 48 h, read-out: Cytotoxicity IC50, ID8): 0.00432 ± 0.00158 µM
IC50 ([5]; Mus musculus, L1210, 48 h, read-out: Cytotoxicity IC50, L1210): 0.481 ± 0.034 µM

From US10280183B2, “Therapeutic agent for treating tumors” (THE RESEARCH FOUNDATION FOR THE STATE UNIVERSITY OF NEW YORK, priority 2014, dated 2019)
